We go through one compound from paper PMC4608580, “Synthesis and Evaluation of Biological Activity of Antimicrobial – Pro-Proliferative Peptide Conjugates” (PLoS ONE, 2015).

Structures are written as SMILES. In brackets after ≈: the same amount, converted by molar mass. Residues, ends and D or L forms follow the SMILES beside them.

Series [1] has as its system Candida parapsilosis (CCM 8260). It is filed as cell-based. The note with it: broth microdilution, Mueller-Hinton broth + 2% glucose, about 2.5 x 10^3 CFU/mL, 37°C, 24 h, absorbance 590 nm, at least triplicate. The source says:
(§1) Escherichia coli (PCM 2057), Staphylococcus aureus (PCM 2054), Staphylococcus epidermidis (PCM 2118), Pseudomonas aeruginosa (PCM 499) were obtained from Polish Collection of Microorganisms. Fungi strains Candida albicans (CCM 8186), Candida glabrata (CCM 8270), Candida parapsilosis (CCM 8260), Candida krusei (CCM 8271), Candida tropicalis (CCM 8264) were acquired from Czech Collection of Microorganisms.
(§2) Luria-Bertani broth (LB) and Sabouraud Dextrose broth (SB) (Biocorp, Poland) were used for cultivation of bacteria and fungi strains, respectively. Antimicrobial activity of peptides was analyzed through determination of MIC (minimal inhibitory concentration) parameter according to the standard microdilution technique performed on 96-well plates. Mueller-Hinton broth (MHB) was used as the working medium for all bacterial strains, while in case of fungi it was additionally supplemented with 2% glucose.
(§3) Briefly, inoculum was prepared from freshly grown cultures of microorganisms being at their exponential phase of growth. Each well of 96-well plates containing 100 μL of serially diluted peptides in PBS (phosphate buffer saline) at concentration ranging from 2 to 250 μg/mL were inoculated with 100 μL of approximately 10^5 CFU/mL of bacterial suspension or about 2.5 x 10^3 CFU/mL of fungi suspended in a double concentrated Mueller-Hinton broth (supplemented with 2% glucose for Candida spps.). Then plates were incubated overnight at 37°C and absorbance was read at 590 nm after 24 h. Cultures without peptide were treated as positive control, while uninoculated Mueller-Hinton broth was defined as negative control. All measurements were run at least in triplicate.
(§4) All peptides were screened against the wide range of microorganisms, including Gram-negative, Gram-positive bacteria and fungi from Candida species (Table 2). Broth microdilution method for MIC determination was used as a standard procedure. All assays were performed on liquid Mueller-Hinton broth, which was additionally supplemented with 2% glucose when fungicidal activity towards Candida spps. was analyzed.

In series [2] the test system is Escherichia coli (PCM 2057). It is filed as cell-based. The note with it: broth microdilution, Mueller-Hinton broth, approximately 10^5 CFU/mL, 37°C, 24 h, absorbance 590 nm, at least triplicate.
Description: as §1, §2, §3, §4
For orientation: Broth dilution looks for growth in wells or tubes with falling amounts of substance.

In series [3] the test system is Candida albicans (CCM 8186). Type of series: cell-based. The note with it: broth microdilution, Mueller-Hinton broth + 2% glucose, about 2.5 x 10^3 CFU/mL, 37°C, 24 h, absorbance 590 nm, peptide 2 to 250 μg/mL, at least triplicate.
Description: as §1, §2, §3, §4

Series [4] concerns Pseudomonas aeruginosa (PCM 499). It is filed as cell-based. The note with it: broth microdilution, Mueller-Hinton broth, approximately 10^5 CFU/mL, 37°C, 24 h, absorbance 590 nm, at least triplicate.
Description: as §1, §2, §3, §4

The test system of series [5] is Staphylococcus epidermidis (PCM 2118). Type of series: cell-based. The note with it: broth microdilution, Mueller-Hinton broth, approximately 10^5 CFU/mL, 37°C, 24 h, absorbance 590 nm, at least triplicate.
Description: as §1, §2, §3, §4

The subject of series [6] is Candida krusei (CCM 8271). It is filed as cell-based. The note with it: broth microdilution, Mueller-Hinton broth + 2% glucose, about 2.5 x 10^3 CFU/mL, 37°C, 24 h, absorbance 590 nm, at least triplicate.
Description: as §1, §2, §3, §4

Series [7] deals with Candida tropicalis (CCM 8264). It is filed as cell-based. The settings on record: broth microdilution, Mueller-Hinton broth + 2% glucose, about 2.5 x 10^3 CFU/mL, 37°C, 24 h, absorbance 590 nm, at least triplicate.
Description: as §1, §2, §3, §4

The test system of series [8] is Candida glabrata (CCM 8270). Type of series: cell-based. The note with it: broth microdilution, Mueller-Hinton broth + 2% glucose, about 2.5 x 10^3 CFU/mL, 37°C, 24 h, absorbance 590 nm, at least triplicate.
Description: as §1, §2, §3, §4

Series [9] concerns Staphylococcus aureus (PCM 2054). It is filed as cell-based. The settings on record: broth microdilution, Mueller-Hinton broth, approximately 10^5 CFU/mL, 37°C, 24 h, absorbance 590 nm, at least triplicate.
Description: as §1, §2, §3, §4

The next series concerns B. cereus. Type of series: cell-based. The note with it: broth microdilution, Mueller-Hinton broth, approximately 10^5 CFU/mL, 37°C, 24 h, absorbance 590 nm, at least triplicate. On the procedure: as §2, §3, §4
A further series concerns B. subtilis. It is filed as cell-based. The settings on record: broth microdilution, Mueller-Hinton broth, approximately 10^5 CFU/mL, 37°C, 24 h, absorbance 590 nm, at least triplicate. The protocol: as §2, §3, §4
Series [10] is described as follows: Circular dichroism, alpha-helical content. The settings on record: CD, mean residue ellipticity at 222 nm (Eq 1), peptide 0.4 mg/ml in 30 mM SDS, room temperature. It is filed as physicochemical. The protocol: Circullar dichroism spectra of analyzed compounds were recorded on a Jasco J-815 spectropolarimeter using a quartz cell of 1 mm path length between 195–260 nm at room temperature. Peptides at concentration of 0.4 mg/ml were dissolved in water or 30 mM SDS solution. SDS micelle system was used as the simplified model of negatively charged lipid membrane. On the basis of the obtained results the alpha-helical content was determined from the mean residue ellipticities at 222 nm according to Eq 1: %Helix=([θ]obs/([θ]helixx(1−2.57/l))x100, (1) where [θ] obs is the experimentally observed mean-residue ellipticity at 222 nm, [θ]helix is the theoretical ellipticity of peptide of infinite length with a 100% helix population, taken as -39 500 deg·cm^2/dmol, and l is the number of peptide bonds.
Circular dichroism method was applied to obtain a basic information about the secondary structure of the synthesized compounds (with the exception of CAR, CAR3, DAL, CTEN2) in two chemical environments, water and 30 mM SDS. As expected, all the tested compounds in water adopted a random-coil structure, while in the presence of 30 mM SDS most of them formed α-helices with characteristic negative minima around 208 and 220 nm. […] The examples of CD spectra for selected peptides could be seen in supporting information (Figure A in S1 File). On the basis of the experimentally obtained values of the mean residue ellipticities of peptides at 222 nm their alpha-helical content was calculated according to the Eq 1 (Table 1).

Series [11] has as its system human primary dermal fibroblasts. The experiment in a line: Cell migration assay (in vitro scratch test). It is filed as cell-based. The note with it: 25 μg/mL, 24 h, serum-free DMEM, Mitomycin C 5 μg/mL, vs. control without peptide, three independent experiments. On the procedure: Biopsies of healthy human skin were obtained aseptically from three donors (47–69 years old) undergoing circumcision after obtaining their written informed consent. All the procedures were approved by the Ethics Committee of Medical University of Gdansk (NKEBN/483/2011. Issued: 2011-12-19). The samples were washed several times with sterile PBS (Sigma-Aldrich, Germany) containing antibiotic (200 U/mL penicillin and 200 μg/mL streptomycin), after which, the subcutaneous tissue was cut off with a sharp blade. The resulting sheets were cut into small fragments, washed two times with sterile PBS and treated with 6 U/mL dispase II (BD, USA) overnight at 4°C to separate epidermis and dermis. The dermis was then digested with 1.0 mg/mL collagenase type I (from Clostridium histolyticum Sigma-Aldrich, Germany) for 2 hours at 37°C to isolate fibroblasts. Cells were used between the 2nd and 4th passage in all experiments.
Fibroblasts and keratinocytes were seeded (5x10^5 cells/well) in 6-well plates. When desired monolayer confluence was reached, cells were starved for 24 hours in serum-free DMEM. The monolayer was scratched then with 200μL-pipette tip. […] The wounded areas were then photographed by means of Zeiss Observer D1 microscope equipped with camera AxioCam and analyzed with AxioVision software (Carl Zeiss, Germany). Migration activity of the cells treated with the tested peptides were expressed as the percentage of the wounded area with respect to the control probe (cell cultures without any of the peptide), assumed as 100%.
An in vitro scratch test was performed to investigate the effect of the analyzed compounds on keratinocytes and fibroblasts migration. […]
Fig 2 Effect of the peptides on HaCaT keratinocytes and fibroblasts cell migration in the in vitro scratch test. […] Migration was analyzed after 24 hours by means of Zeiss Observer D1 microscope, wounding areas were analyzed with AxioVision software and expressed as the percentage of the wound width in comparison to the control sample (cells incubated in DMEM without FCS). […]

Another series relates to HaCaT keratinocytes. The experiment in a line: Cell migration assay (in vitro scratch test). Type of series: cell-based, human. The note with it: 25 μg/mL, 24 h. The protocol: Fibroblasts and keratinocytes were seeded (5x10^5 cells/well) in 6-well plates. When desired monolayer confluence was reached, cells were starved for 24 hours in serum-free DMEM. The monolayer was scratched then with 200μL-pipette tip. The floating cells and cell debris were removed by double washing in PBS, further replaced with a fresh serum-free medium. Wounded monolayers were incubated for the next 24 h in the presence of tested peptides used at concentration of 25 μg/mL and 5 μg/mL of Mitomycin C (Sigma Aldrich) to prevent proliferation. At the end of the experiment medium was removed and the cells were fixed with 3.7% PFA for 5 min, stained for the next 30 min with 0.05% crystal violet solution, washed several times with distilled water and the plates were left inverted for a couple of minutes to drain. The wounded areas were then photographed by means of Zeiss Observer D1 microscope equipped with camera AxioCam and analyzed with AxioVision software (Carl Zeiss, Germany). Migration activity of the cells treated with the tested peptides were expressed as the percentage of the wounded area with respect to the control probe (cell cultures without any of the peptide), assumed as 100%.
An in vitro scratch test was performed to investigate the effect of the analyzed compounds on keratinocytes and fibroblasts migration. Evaluation was based on the efficiency of the invasion of the monolayer cells to the prewounded area within 24 h after stimulation with the appropriate compound added at concetration of 25μg/mL.
Fig 2 Effect of the peptides on HaCaT keratinocytes and fibroblasts cell migration in the in vitro scratch test. HaCaT cells and fibroblasts were grown in 6-well plates until the 100% confluence was reached, then cells were starved for the next 12 hours in DMEM without 10% FCS and scratched once vertically with a 200μL pipette tip. After being washed two times with sterile PBS, a fresh portion of DMEM medium was added and cells were treated with the tested peptides applied at their optimal doses (25 μg/mL). Migration was analyzed after 24 hours by means of Zeiss Observer D1 microscope, wounding areas were analyzed with AxioVision software and expressed as the percentage of the wound width in comparison to the control sample (cells incubated in DMEM without FCS). Control+ FCS corresponds to the sample with cells incubated in the medium containing 10% FCS and was treated as the additional positive control. Data represent the mean ± SD of three independent experiments. *P < 0.05, **P < 0.01, ***P < 0.001 vs. control.

In the case of `CC(C)C[C@H](NC(=O)[C@H](Cc1ccccc1)NC(=O)CNC(=O)[C@@H](C)NC(=O)[C@@H](N)Cc1ccc(O)cc1)C(=O)N[C@@H](CCCNC(=N)N)C(=O)NCCOCCOCC(=O)N[C@@H](CCCCN)C(=O)N[C@@H](CCCCN)C(=O)N[C@H](C(=O)N[C@H](C(=O)N[C@@H](Cc1ccccc1)C(=O)N[C@@H](Cc1c[nH]c2ccccc12)C(=O)N[C@H](C(=O)N[C@@H](CCCCN)C(=O)N[C@@H](Cc1ccccc1)C(=O)N[C@@H](CCCCN)C(N)=O)C(C)C)C(C)C)C(C)C` [DAL-PEG-KSLW] (HELM PEPTIDE1{Y.[dA].G.F.L.R.[O=C(COCCOCCN[*:1])[*:2]].K.K.V.V.F.W.V.K.F.K.[am]}$$$$V2.0; N-terminus assumed), in [1], the “MIC C. parapsilosis” value is 62.5 µg/mL. In addition, the “MIC E.coli” value in series [2] came to 7.8 µg/mL (≈ 3.61 µM). Moreover, the “MIC C. albicans” value in series [3] was determined as 31.3 µg/mL. The “MIC P. aeruginosa” value in [4] was 62.5 µg/mL (≈ 28.9 µM). Moreover, in [5], the “MIC S. epidermidis” value came out at 3.9 µg/mL (≈ 1.8 µM). The “MIC C.krusei” value in series [6] is 31.3 µg/mL. Besides, the “MIC C.tropicalis” value in series [7] was 7.8 µg/mL. In [8], the “MIC C.glabrata” value worked out at 125 µg/mL. For the same compound, the “MIC S.aureus” value in [9] was 62.5 µg/mL (≈ 28.9 µM). Besides, in the series on B. cereus, the “MIC B. cereus” value turned out to be 125 µg/mL (≈ 57.9 µM). Besides, the “MIC B. subtilis” value against B. subtilis was 15.6 µg/mL (≈ 7.22 µM). The α-helicity in series [10] turned out to be 22%. In addition, the “Effect on fibroblast migration (scratch test), in words” value in series [11] is “highest migration rate”. Also, the “Effect on keratinocyte migration (scratch test), in words” value with HaCaT keratinocytes (serum-free DMEM, Mitomycin C 5 μg/mL, vs. control without peptide, three independent experiments) is “best results”. In addition, the “Keratinocyte migration higher than that of the native peptides KSLW and DAL” value in the series on HaCaT keratinocytes (scratch test) is “about 15%”.
